These results are taken from US7208495B2, “Benzo-fused 5-membered hetrocycle compounds, process for preparation of the same, and use thereof” (Takeda Pharmaceutical Company Limited, priority 2001, dated 2007).

One experiment deals with mixed rat glia culture. Put plainly: Neurogenesis enhancing activity in mixed rat glia culture (β III-tubulin positive cell area). The class given is cell-based. As to conditions: compound 1 μM; serum-free medium, five days differentiation; β III-tubulin positive cell area by image analysis versus control without compound. The source says:
Neurogenesis Enhancing Activity in Mixed Rat Glia Culture
Neonatal of SD rats were purchased from Japan Charles River Co, Ltd. A […] nylon cell strainer was purchased from Beckton-Dickinson. DMEM/F12 culture medium, antibiotic, and N2 additive were purchased from Life Technology Corp. Anti β III-tubulin antibody was purchased from Sigma Corp. DAKO EnVision+/HRP kit was purchased from Dako Japan Corp. As for other reagents, commercially available guaranteed reagents were used.
Rat mixed glia culture was prepared from the cerebrums of 2 day old neonatal SD rat. The neonates were anaesthetised with ice cooling, were decapitated, and their brains were quickly removed. The meninges were carefully removed, and the cerebral cortex was separated therefrom. The cerebral cortex was passed through 40 micron nylon mesh, and it was physically dissociated. Cell suspension was then layered in a cell dispersion liquid on serum, and the cells were fractionated by non-continuous density gradient centrifugation. The precipitate was washed twice with growth culture medium (10% FBS and antibiotic. added to DMEM/F12), and it was dispersed. Mixed glia culture was seeded and inoculated onto a collagen coated 96 well multiplate with 1×10^5 cells per well, and was cultured for five days.
After culturing for five days, mixed glia culture was used in a differentiation assay. Growth culture medium was substituted with a serum-free medium (N2 supplememt and antibiotic added to DMEM/F12), and test compound was added simultaneously. After differentiation for five days, culture was fixed with 4% paraformaldehyde, and was immunostained with the mouse anti β III-tubulin monoclonal antibody and the DAKO EnVison+/HRP kit.
β III-tubulin positive cell area were quantified by image analysis, and was compared to when compound (I) was added (1 μM) and when it was not added (control).

Experiment [1] has as its system human neuroblastoma SK-N-SH cells. Nature of the experiment: Cytoprotection activity against PI-3 kinase inhibitor LY-294002 in human neuroblastoma SK-N-SH cells. The class given is cell-based. The settings on record: test compound 1.0 μM with LY-294002 30 μM, Alamarblue reduction one day after start, (A−B)/(C−B)×100. The method, then:
Cytoprotection activity against a PI-3 kinase inhibitor LY-294002 in human neuroblastoma SK-N-SH cells.
Human neuroblastoma SK-N-SH cells were purchased from American Type Cell Culture (ATCC). DMEM/F-12 culture medium and potassium/magnesium-free phosphate buffer saline (PBS(−)) were purchased from Nikken Biomedical Co., Ltd., N2 additives and EDTA solution were purchased from GIBCO BRL Company, fetal bovine serum (FCS) and a mixed solution of penicillin (5000 U/ml) and streptomycin (5 mg/ml) were purchased from BioWhittaker Inc., Alamarblue™ reagent was purchased from Wako Pure Chemical Industries Ltd., culture flasks were purchased from Falcon Company, collagen-coated 96-well multi-plates were purchased from Iwaki Glass Co., Ltd., and LY-294002 was purchased from Alexis Biochemicals, respectively. As for other reagents, commercially available guaranteed reagents were used.
A DMEM/F-12 culture medium which contains 5% FCS, 0.5% N2, 10 mM HEPES, and a 1% mixed solution of penicillin (5000 U/ml) and streptomycin (5 mg/ml) was used to subculture SK-N-SH cells in a carbon dioxide incubator under a mixed gas atmosphere consisting of 10% carbon dioxide/90% air. After being cultivated to a sub-confluent stage, the cells were detached with a PBS(−) solution containing 2.5 mM EDTA and seeded onto collagen-coated 96-well multi-plates in the proportion of 10^4/100 μL well. After cultivation for 24 hours, the cultured cells were used in a cytotoxic test.
[…] of the culture medium of the SK-N-SH cells that were cultured as described above on the collagen-coated 96-well multi-plates was removed, and 40 μL each of LY-294002 having a final concentration of 30 μM and a test compound having a final concentration that was adjusted to be 1.0 μM were simultaneously added to initiate the cytotoxicity test. Note that each test compound used was diluted to a concentration of 10 mM with dimethyl sulfoxide, and the LY-294002 used was diluted to a concentration of 100 mM with dimethyl sulfoxide.
The survival activity of neural cells that were still living one day after the initiation of the cytotoxicity test was estimated by the reductive activity of Alamarblue™ reagent as an index. 20 μL of the culture medium was removed, 20 μL of Alamarblue™ reagent was added, and the amount of Alamarblue™ reagent reduced for 4 hours incubation was calorimetrically measured with a plate reader (WAKO SPECTRAMAX 250 Microplate Reader) (measurement wave length 570 nm, reference wave length 600 nm).
Cytoprotection activity was calculated by means of the following equation. Cytoprotection activity a test compound=(A−B)/(C−B)×100 (%) • A: The survival activity of a group consisting of a test compound and LY-294002 • B: The survival activity of a group consisting of LY-294002 • C: The survival activity of a control group (Results)
At least 4 wells for every 1 dose of a test compound was used to determine the cytoprotection activity of a test compound.

For `COc1ccc(C2CCN(c3c(C)c(C)c4c(c3C)[C@@H](c3ccc(C)cc3)C(C)(C)O4)CC2)cc1OC` [Example 32, (3R)-4-(3,4-dimethoxyphenyl)-1-(2,2,4,6,7-pentamethyl-3-(4-methylphenyl)-2,3-dihydro-1-benzofuran-5-yl)piperidine], the “Differentiation/nacent promotion activity (%/control)” value with mixed rat glia culture was 371 %/control. In addition, the “Cell protection activity (%)” value in experiment [1] is 35.6%.

For the molecule `COc1ccc(N2CCN(c3c(C)c(C)c4c(c3C)C(O)(c3ccc(C)cc3)C(C)(C)O4)CC2)cc1` (stereo not shown) [Example 33, 1-(3-hydroxy-2,2,4,6,7-pentamethyl-3-(4-methylphenyl)-2,3-dihydro-1-benzofuran-5-yl)-4-(4-methoxyphenyl)piperazine], the “Differentiation/nacent promotion activity (%/control)” value in the experiment with mixed rat glia culture came out at 448 %/control. Besides, the “Cell protection activity (%)” value in experiment [1] turned out to be 24.9%.

Consider `COc1ccc(N2CCN(c3c(C)c(C)c4c(c3C)C(c3ccc(C)cc3)C(C)(C)O4)CC2)cc1` (stereo not shown) [Example 46, 1-(2,2,4,6,7-pentamethyl-3-(4-methylphenyl)-2,3-dihydro-1-benzofuran-5-yl)-4-(4-methoxyphenyl)piperazine], for which, in the experiment with mixed rat glia culture, the “Differentiation/nacent promotion activity (%/control)” value stood at 842 %/control. In addition, the “Cell protection activity (%)” value in experiment [1] is on record as 39.5%.

For the molecule `COc1ccc(N2CCN(c3c(C)c(C)c4c(c3C)C(Nc3ccccc3)C(C)(C)O4)CC2)cc1` (stereo not shown) [Example 58, N-phenyl-5-(4-(4-methoxyphenyl)piperazin-1-yl)-2,2,4,6,7-pentamethyl-2,3-dihydro-1-benzofuran-3-amine], the “Cell protection activity (%)” value in experiment [1] is 39.2%.

As for `COc1ccc(N2CCN(c3c(C)c(C)c4c(c3C)C(N3CCCCC3)C(C)(C)O4)CC2)cc1` (stereo not shown) [Example 59, 4-(4-methoxyphenyl)-1-(2,2,4,6,7-pentamethyl-3-piperidino-2,3-dihydro-1-benzofuran-5-yl)piperazine], in experiment [1], the “Cell protection activity (%)” value is listed as 23.9%.

For `COc1ccc(C2CCN(c3c(C)c(C)c4c(c3C)C(c3ccc(C)cc3)C(C)(C)O4)CC2)cc1OC` (stereo not shown) [Example 79, 4-(3,4-dimethoxyphenyl)-1-(3-(4-methylphenyl)-2,2,4,6,7-pentamethyl-2,3-dihydro-1-benzofuran-5-yl)piperidine], the “Cell protection activity (%)” value in experiment [1] turned out to be 31.3%.

Regarding `COc1ccc(C2CCN(c3c(C)c(C)c4c(c3C)C(N3CCc5ccccc5CC3)C(C)(C)O4)CC2)cc1OC` (stereo not shown) [Example 92, 3-(5-(4-[3,4-dimethoxyphenyl]piperidino)-2,2,4,6,7-pentamethyl-2,3-dihydro-1-benzofuran-3-yl)-2,3,4,5-tetrahydro-1H-3-benzoazepin], the “Cell protection activity (%)” value in experiment [1] turned out to be 29.6%.
